From patent US6303751A, “Human metabotropic glutamate receptor and related DNA compounds” (Eli Lilly and Company, priority 1995, dated 2001) come the findings set out here.

Assay [1] relates to HSmGluR1 receptor (human metabotropic glutamate receptor) in AV12/pRS121 cells. In words: PI hydrolysis in AV12/pRS121 cells (PI assay). It is filed as cell-based. Particulars: 10 μM, one hour at 37° C. Here is the method:
(§1) PI hydrolysis in clonal cell lines of AV12/pRS121 cells was measured in response to glutamate agonists as a functional assay for metabotropic glutamate receptor activity according to Schoepp, 11 TiPS 508 (1990).
(§2) Twenty-four-well tissue-culture vessels were seeded with approximately 250,000 cells per well in D-MEM (in the absence of glutamic acid) which contained […] and 10% dialyzed fetal calf serum. Four microcuries of ^3 H-myoinositol were then added to each well and the cultures were incubated for 48 hours at 37° C. The wells were then rinsed with serum-free medium which contained 10 mM LiCl and 10 mM myoinositol. Some wells were then exposed to medium with glutamate agonists for one hour at 37° C., and some wells were at the same time exposed to medium without glutamate agonists for one hour at 37° C.
(§3) The reactions were terminated by removing the media and adding 0.5 ml acetone-methanol (1:1). The cells were then incubated at 4° C. for 20 minutes. The acetone-methanol solutions were recovered from the wells and were placed into centrifuge tubes. […]
(§4) Labeled phosphoinositides were eluted from the cartridges with 4 ml of a solution which contained: 0.1 M ammonium formate; 0.1 M formic acid and 5 mM sodium tetraborate. […] Scintillation counting fluid (Ready Solv HP) was added to the vials and the radioactivity was determined in a Beckmann Scintillation Counter.

A further assay deals with control AV12 cells. Description: PI hydrolysis in control AV12 cells (PI assay). It is filed as cell-based. Particulars: quisqualate 10 μM. Here is the method:
as §1, §2, §3, §4

In the case of `N[C@@H](Cn1oc(=O)[nH]c1=O)C(=O)O` [quisqualate], the “increase in PI hydrolysis over the basal level” value in assay [1] was in the range of 200 to 300%. Moreover, the “increase in PI hydrolysis over basal levels” value with control AV12 cells is reported as “No increase”.
